Measurements reported in PMC5698469, “Carrageenan catabolism is encoded by a complex regulon in marine heterotrophic bacteria” (Nature Communications, 2017).

Key:
[1] = target: T1, ZGAL_3633 (Zobellia galactanivorans, UniProt G0L1N0); experiment: beta-galactosidase activity on artificial substrate; type: biochemical
T1 construct: gene bgaB
T1 sequence (G0L1N0 21-825): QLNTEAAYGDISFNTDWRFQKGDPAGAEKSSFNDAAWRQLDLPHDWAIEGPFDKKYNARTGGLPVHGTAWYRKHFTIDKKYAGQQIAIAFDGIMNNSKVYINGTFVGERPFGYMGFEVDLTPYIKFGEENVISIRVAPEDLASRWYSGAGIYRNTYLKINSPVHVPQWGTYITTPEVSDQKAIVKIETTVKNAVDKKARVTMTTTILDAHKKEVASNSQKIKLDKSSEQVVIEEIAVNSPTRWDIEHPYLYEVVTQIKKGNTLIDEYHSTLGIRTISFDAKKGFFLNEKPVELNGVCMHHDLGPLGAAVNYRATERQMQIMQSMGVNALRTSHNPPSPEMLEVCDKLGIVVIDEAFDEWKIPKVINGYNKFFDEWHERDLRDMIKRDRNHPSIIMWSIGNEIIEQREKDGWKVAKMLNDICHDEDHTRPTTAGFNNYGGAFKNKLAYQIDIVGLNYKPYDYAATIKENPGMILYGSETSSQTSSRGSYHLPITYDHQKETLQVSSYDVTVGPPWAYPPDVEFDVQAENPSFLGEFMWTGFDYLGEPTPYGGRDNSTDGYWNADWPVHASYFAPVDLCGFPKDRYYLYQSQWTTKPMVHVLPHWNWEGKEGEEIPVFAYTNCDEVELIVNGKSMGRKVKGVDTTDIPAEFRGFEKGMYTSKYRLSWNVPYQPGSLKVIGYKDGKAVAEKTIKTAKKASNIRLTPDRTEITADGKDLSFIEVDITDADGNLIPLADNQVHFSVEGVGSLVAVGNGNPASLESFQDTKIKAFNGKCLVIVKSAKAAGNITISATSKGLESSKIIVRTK

[2] = target: T2, ZGAL_4655 (Zobellia galactanivorans, UniProt G0L4M6); experiment: as above; type: biochemical
T2 construct: gene bgaF
T2 sequence (G0L4M6 18-845): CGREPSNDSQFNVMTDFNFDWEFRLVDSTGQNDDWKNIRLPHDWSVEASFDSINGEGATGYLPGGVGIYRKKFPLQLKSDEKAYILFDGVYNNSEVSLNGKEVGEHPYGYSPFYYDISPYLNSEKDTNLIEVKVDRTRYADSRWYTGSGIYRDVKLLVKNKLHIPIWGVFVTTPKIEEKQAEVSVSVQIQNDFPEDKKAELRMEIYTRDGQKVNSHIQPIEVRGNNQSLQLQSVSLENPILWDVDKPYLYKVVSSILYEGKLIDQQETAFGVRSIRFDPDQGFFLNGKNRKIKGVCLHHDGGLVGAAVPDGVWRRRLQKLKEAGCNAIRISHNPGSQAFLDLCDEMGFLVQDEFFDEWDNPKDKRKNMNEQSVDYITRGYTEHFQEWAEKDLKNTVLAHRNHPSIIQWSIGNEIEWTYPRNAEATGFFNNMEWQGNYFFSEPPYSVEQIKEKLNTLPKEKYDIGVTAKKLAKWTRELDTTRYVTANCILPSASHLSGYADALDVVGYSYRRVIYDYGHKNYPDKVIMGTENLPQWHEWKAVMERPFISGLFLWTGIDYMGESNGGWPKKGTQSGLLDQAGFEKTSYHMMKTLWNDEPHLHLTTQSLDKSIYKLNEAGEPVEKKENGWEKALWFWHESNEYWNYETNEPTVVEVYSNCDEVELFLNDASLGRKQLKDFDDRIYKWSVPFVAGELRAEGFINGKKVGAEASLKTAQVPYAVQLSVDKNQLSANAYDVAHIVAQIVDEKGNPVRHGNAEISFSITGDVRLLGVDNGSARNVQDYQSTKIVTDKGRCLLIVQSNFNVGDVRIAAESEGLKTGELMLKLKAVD

O=[N+]([O-])c1ccc(O[C@@H]2O[C@H](CO)[C@H](O)[C@H](O)[C@H]2O)cc1 [pNP-beta-D-galactopyranoside]
beta-galactosidase activity on artificial substrate [1]: recombinant enzymes displayed beta-galactosidase activity on an artificial substrate (pNP-beta-D-galactopyranoside
beta-galactosidase activity on artificial substrate [2]: recombinant enzymes displayed beta-galactosidase activity on an artificial substrate (pNP-beta-D-galactopyranoside
